# Source: patent KR20170075293A, “피부 개선용 조성물” (주식회사 엘지생활건강, priority 2015, dated 2017)
# How the values were obtained:
# Format in all cases: cell-based
# [1] = test system: mouse melanoma cells [쥐의 멜라노마 세포(B-16 mouse melanoma cell)]; experiment: Inhibition of melanin production in B-16 mouse melanoma cells; conditions: relative to control; for inhibition rate (melanin production): 3 days, absorbance at 400 nm per 10^6 cells, n = 3
# HAS-2 = HAS-2 mRNA expression in human keratinocytes (real time PCR); conditions: Keratinocyte, 24 h, untreated negative control = 100%, GAPDH reference, n = 4, read-out: HAS-2 expression amount
# HAS-3 = HAS-3 mRNA expression in human keratinocytes (real time PCR); conditions: Keratinocyte, 24 h, untreated negative control = 100%, GAPDH reference, n = 4, read-out: HAS-3 expression amount
# [2] = test system: collagen type I [콜라겐 타입 I], human fibroblast [인간 유래 섬유아세포]; experiment: Collagen type I synthesis in human fibroblasts (PICP EIA kit); conditions: 48 h, n = 4
# [3] = test system: sulfated glycosaminoglycan [황산화 글리코사미노글리칸], human fibroblast [인간 유래 섬유아세포]; experiment: Sulfated glycosaminoglycan synthesis in human fibroblasts (Blyscan kit); conditions: 24 h; for sulfated glycosaminoglycan production amount: n = 4
structure (smiles),measurement,setting,value
"OC[C@H]1O[C@@H](Oc2ccc(O)cc2)[C@H](O)[C@@H](O)[C@@H]1O [알부틴, Arbutin, reference compound]",inhibition rate (melanin production),[1]; 200 ㎍/ml,31.3%
"N[C@H]1C(O)O[C@H](CO)[C@@H](O)[C@@H]1O (stereo partly shown) [글루코사민, reference compound]",activity at 100 ppm,HAS-2; 100 ppm,114%
same,activity at 100 ppm,HAS-3; 100 ppm,125%
"COc1cc2ccc(=O)oc2c(OC)c1O [이소프락시딘, Isofraxidin]",collagen production amount,[2]; 10 ㎍/ml,304 ng/mL
same,collagen production amount,[2]; 20 ㎍/ml,370 ng/mL
same,sulfated glycosaminoglycan production amount,[3]; 1 ㎍/ml,0.50 ng/mL
same,sulfated glycosaminoglycan production amount,[3]; 10 ㎍/ml,1.64 ng/mL
same,sulfated glycosaminoglycan production amount,[3]; 20 ㎍/ml,2.98 ng/mL
same,activation at 20 µg/mL,"[3]; Homo sapiens, Fibroblast, 20 ㎍/ml, relative to untreated control (0.46 ng/ml), n = 4, read-out: sulfated glycosaminoglycan production increase rate",548%
same,activity at 1 ppm,HAS-2; 1 ppm,122%
same,activity at 10 ppm,HAS-2; 10 ppm,135%
same,activity at 1 ppm,HAS-3; 1 ppm,126%
same,activity at 10 ppm,HAS-3; 10 ppm,151%
same,inhibition rate (melanin production),[1]; 1 ㎍/ml,29.1%
same,inhibition rate (melanin production),[1]; 10 ㎍/ml,34.9%
same,inhibition rate of melanin production (summary statement),[1]; concentration not given,≥ 25%
